In publication PMC11478212, “Antitumoral and Antiproliferative Potential of Synthetic Derivatives of Scorpion Peptide IsCT1 in an Oral Cavity Squamous Carcinoma Model” (Molecules, 2024):
Where “and” joins values, the source holds several entries; their conditions need not be identical. Equal values may be shown once. Entries after “also recorded” stand apart in the source; their conditions may differ. Read-outs that look alike come from different tables or passages of the source.

Columns and labels:
[1] = Resistance to degradation in 25% fetal bovine serum; format: in vitro ADME; settings: 25% fetal bovine serum in water, 37 °C, HPLC peak area vs t = 0 h, triplicate
Description: (§1) Figure 1 (a) Helical wheel projections of the IsCT1, AFPK-IsCT1, KKK-IsCT1, and IsCT-P peptides were generated using the Heliquest server (https://heliquest.ipmc.cnrs.fr/, accessed on 15 July 2024). In these projections, yellow, gray, and green circles represent hydrophobic amino acids, while blue and pink circles denote hydrophilic amino acids. (b) Resistance to degradation assays for all peptides were performed over 6 h in a solution containing 25% fetal bovine serum (FBS). These experiments were conducted in triplicate and aliquots were collected for analysis at 0, 0.5, 1, 2, 4, and 6 h of incubation. The aliquots were subsequently analyzed using high-performance liquid chromatography (HPLC) after each incubation period. The degradation kinetics of the peptides were determined by comparing the integrated peak area associated with the peptide at the start of the experiment (t = 0 h) with the integrated peak area at subsequent time points (t = 0.5, 1, 2, 4, 6 h). (c) The hemolytic activity of synthetic peptides analogous to IsCT1 was assessed on human erythrocytes within a concentration range of 0.13–128 μmol L^−1 in phosphate-buffered saline (PBS) (n = 3). A 1% solution of sodium dodecyl sulfate (SDS) in PBS served as a positive control, while PBS alone was used as a negative control. (d) A table summarizing the sequences, molecular weights, and physicochemical properties of the IsCT1, AFPK-IsCT1, and KKK-IsCT1 peptides. […]
Stability assays were conducted using GIBCO (Waltham, MA, USA) fetal bovine serum diluted to 25% in water, as described by Torres et al.. Briefly, peptide solutions were added to the serum solution and maintained at 37 °C. The experiments were carried out in triplicate and samples were taken at 0, 0.5, 1, 2, 4, and 6 h post incubation. The degradation kinetics were monitored using liquid chromatography and the percentage of remaining peptides was calculated by integrating the peak area of the peptide.

human erythrocytes = experiment: Hemolytic activity assay; format: cell-based; settings: 0.13–128 μmol L−1 in PBS, n = 3; 1% SDS positive control, PBS negative control
Description: as §1, with “3).” for “3). A 1% solution of sodium dodecyl sulfate (SDS) in PBS served as a positive control, while PBS alone was used as a negative control. (d) A table summarizing the sequences, molecular weights, and physicochemical properties of the IsCT1, AFPK-IsCT1, and KKK-IsCT1 peptides.”
Cell survival was assessed using an MTT assay. […] Absorbance was then measured at a wavelength of 540 nm using a microplate reader. […]

FN1 cells = experiment: MTT cell viability; format: cell-based; settings: FN1 normal human fibroblasts, treatment 24 and 48 h (time of IC50 not given), absorbance 540 nm, N/IC50 = no IC50 for the tested concentrations, no toxicity
Description: (§2) Cell survival was assessed using an MTT assay. Tumor (SSC-9 and SSC-25) and normal cells (FN1 and J-774) were incubated in 96-well plates at a density of 10^5 cells/mL for 24 h. Subsequently, treatments were administered as described in Table 1 for 24 and 48 h. After the treatment period, the supernatant was aspirated and 100 μL of MTT at a concentration of 5 mg/mL (Calbiochem—Darmstadt, Germany) was added to the plate and incubated for 3 h at 37 °C with 5% CO2. Afterward, the content was removed and 200 μL of methanol was added to dissolve the formazan crystals. Absorbance was then measured at a wavelength of 540 nm using a microplate reader. The hemolysis assay was performed as previously reported.

J774 cells = experiment: MTT cell viability; format: cell-based; settings: J774 normal macrophages, treatment 24 and 48 h (time of IC50 not given), absorbance 540 nm, N/IC50 = no IC50 for the tested concentrations, no toxicity
Description: as §2

SCC-25 cells = experiment: MTT cell viability; format: cell-based; settings: treatment 24 and 48 h (time of IC50 not given), absorbance 540 nm, N/IC50 = no IC50 for the tested concentrations, no toxicity, read-out: IC50
Description: as §2

SCC-9 cells = experiment: MTT cell viability; format: cell-based; settings: treatment 24 and 48 h (time of IC50 not given), absorbance 540 nm, N/IC50 = no IC50 for the tested concentrations, no toxicity, read-out: IC50
Description: as §2

SCC-25 tumor cells = experiment: Mitochondrial membrane electrical potential (ΔΨm) by flow cytometry; format: cell-based; settings: 24 h, IsCT-P and AC-AFPK-IsCT1 at IC50, others 100 µM, MitoRed, mean ± SD of three independent experiments
Description: (§3) Figure 4 Analysis of mitochondrial electrical potential (ΔΨm) using flow cytometry following a 24 h treatment with synthetic analogs of IsCT1 peptides. The indicated cells were treated at the IC50 values obtained for the IsCT-P and AC-AFPK-IsCT1 peptides and at a concentration of 100 µM for the other peptides. (a) Representative histograms of cell distribution according to ΔΨm; (b) bar graph showing ΔΨm expressed as the mean ± SD of three independent experiments of SCC-9 tumor cells; (c) bar graph showing ΔΨm expressed as the mean ± SD of three independent experiments of SCC-25 tumor cells; (d) bar graph showing ΔΨm expressed as the mean ± SD of three independent experiments of normal FN1 cells; (e) bar graph showing ΔΨm expressed as the mean ± SD of three independent experiments of normal J774 cells. Statistical differences were obtained using ANOVA and Tukey–Kramer multiple comparison tests. * p < 0.05, ** p < 0.01, and *** p < 0.001 denote significance. ns = not significant.
(§4) Tumor (SSC-9 and SSC-25) and normal cells (FN1 and J-774) were subjected to treatment for a period of 24 h at the peptides’ IC50 concentrations. After treatment, the cells were trypsinized, centrifuged at 1200 rpm for 5 min, the supernatant was discarded, and the cells were resuspended in complete medium containing MitoRed™ (Sigma-Aldrich, USA) (200 nM/L). Subsequently, the samples were incubated in an incubator at 37 °C with 5% CO2 for 30 min. The tubes were then centrifuged, the supernatant was discarded, and the pellet was resuspended in 200 μL of FACS buffer. Readings were performed using a FACScanto flow cytometer (BD) with 10,000 events, and histograms were acquired and analyzed using FCS Express software 2.0.

SCC-9 tumor cells = experiment: as above; format: cell-based; settings: 24 h, IsCT-P and AC-AFPK-IsCT1 at IC50, others 100 µM, MitoRed, mean ± SD of three independent experiments
Description: as §3, §4

Substance	metabolised at 0.5 h ([1]; 30 min)	hemolytic activity (human erythrocytes)	IC50 (FN1 cells)	IC50 (J774 cells)	IC50 (SCC-25 cells)	IC50 (SCC-9 cells)	decrease in ΔΨm (SCC-25 tumor cells)	decrease in ΔΨm (SCC-9 tumor cells)	remaining at 1 h ([1]; 1 h, read-out: peptide remaining intact after 1 h)	remaining at 4 h ([1]; 4 h, read-out: peptide remaining intact after 4 h)	IC50 (FN1 cells; read-out: IC50)
Ac-ALGKFWPKIKSLF-NH2 [AC-AFPK-IsCT1]	18%	did not show hemolytic activity at high concentrations	did not exhibit cytotoxic effects; also recorded: N/IC50	N/IC50	84.4 µM and 84.5 µM	90.5 µM	31.5 ± 5.4%	16.3 ± 2.7%			
H-ILKKIWKPIKKLF-NH2 [IsCT-P]		caused the hemolysis		N/IC50	81.3 µM	96.5 µM	44.4 ± 4.8%	21.2 ± 5.1%	70%	18%	80.3 µM and 80.4 µM
